Columns and labels:
[1] = target: p110α (Homo sapiens, UniProt P42336); test: class I PI3K HTRF assay, p110α; type: biochemical
Method: (§1) DS7423 inhibits PI3K/mTOR activity likely binding to the ATP binding cleft of these enzymes and was tested against class I PI3K and other kinases using an HTRF assay format and direct measurement of substrate phosphorylation, respectively.

[2] = target: p110γ (Homo sapiens, UniProt P48736); test: class I PI3K HTRF assay, p110γ; type: biochemical
Method: as §1

[3] = target: p110δ (Homo sapiens, UniProt O00329); test: class I PI3K HTRF assay, p110δ; type: biochemical
Method: as §1

[4] = target: p110β (Homo sapiens, UniProt P42338); test: class I PI3K HTRF assay, p110β; type: biochemical
Method: as §1

[5] = target: mixed lineage kinase 1 (MLK1) (Homo sapiens, UniProt P80192); test: kinase panel, direct measurement of substrate phosphorylation, MLK1; type: biochemical; conditions: panel of 227 kinases; test concentration not given
Method: as §1

[6] = target: T1, never-in-mitosis gene a (NIMA)-related kinase 2 (NEK2) (Homo sapiens, UniProt P51955); test: kinase panel, direct measurement of substrate phosphorylation, NEK2; type: biochemical; conditions: panel of 227 kinases; test concentration not given
T1 sequence (P51955 1-445): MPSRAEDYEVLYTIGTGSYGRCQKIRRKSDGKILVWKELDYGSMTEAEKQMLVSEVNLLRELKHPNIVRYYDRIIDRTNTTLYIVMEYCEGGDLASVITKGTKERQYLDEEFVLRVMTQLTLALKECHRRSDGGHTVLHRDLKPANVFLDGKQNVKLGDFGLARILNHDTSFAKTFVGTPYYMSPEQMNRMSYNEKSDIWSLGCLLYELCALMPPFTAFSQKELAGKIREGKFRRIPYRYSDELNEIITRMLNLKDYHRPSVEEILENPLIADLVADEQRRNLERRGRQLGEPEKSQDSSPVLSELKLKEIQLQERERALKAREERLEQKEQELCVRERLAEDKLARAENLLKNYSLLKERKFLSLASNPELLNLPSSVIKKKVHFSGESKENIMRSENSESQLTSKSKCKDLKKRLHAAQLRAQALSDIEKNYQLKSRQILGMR
Method: as §1

[7] = pharmacokinetic study in mice, plasma and brain concentrations by LC-MS/MS; type: in vivo, nude mice
Method: We studied the plasma concentration-time profile of DS following a single PO administration (6 mg/kg) in mice (Figure 1). Plasma concentrations remained generally constant and higher than 2 μmol/L up to 6 hours after treatment. The brain-to-plasma ratio of total concentrations remained unchanged and was approximately 0.1 between 1 and 6 hours after treatment (Figure 1A and 1B). Both plasma and brain DS concentrations decreased at 24 hours after treatment.
Figure 1 A. and B. Plasma and brain concentration-time profile of DS7423 following a single PO administration (6 mg/kg) to nude mice. C. Western blot of mouse brains probed with antibodies against pAkt (Ser473) and pS6 (Ser235/236) in a time profile similar to that shown in A and B. Results are presented as the mean ± SE of six animals in each group.
Mice were implanted with U87 cells intracranially as described previously. Twenty-one days after injection of the tumor cells,mice were randomized into groups. Mice were given a 6 mg/kg oral (PO) dose of DS. Blood samples of approximately 0.15 mL were collected from mice (n = 4 mice per time point) by retro-orbital bleeding in tubes containing K2EDTA as the anticoagulant pre-dose and at 2, 4, 6, and 24 hours post-dose. Plasma was collected and stored at −80°C until analysis. DS concentrations were determined by liquid chromatography-tandem mass spectrometry (LC-MS/MS) following plasma protein precipitation with acetonitrile and injection of the supernatant onto a TSK-GEL ODS-100V column (150 mm × 2 mm, 5 μm particle size). A Shimadzu 10A system (Shimadzu Corp., Kyoto, Japan) coupled with an AB Sciex API4000 triple-quadrupole mass spectrometer (Applied Biosystems, Foster City, CA) was used for the LC-MS/MS assay. […] DS and its internal standard ([^2H8]DS) were analyzed in the multiple reaction monitoring mode using the mass transitions of m/z 521→479 and 529→487, respectively. The lower and upper limits of quantitation were 2 and 5000-ng/mL10 μmol/L, respectively. […] For DS quantitation, mouse brains were homogenized in 3 volumes of 50% acetonitrile. […]

[8] = tested on: glioma cell lines U87 and U251; test: cell viability with DS, TMZ and the combination; type: cell-based; conditions: Homo sapiens, U-251, TMZ 200 μM, DS 200 nM, alone or combined
Method: To investigate the ability of DS to modify the response of glioma cells to TMZ treatment, we evaluated the effects of TMZ (200 μM) alone, DS (200 nM) alone, and a combination of both TMZ and DS on the viability of the glioma cell lines U87 and U251 (Figure 5A).
The antiproliferative effect of DS on cells growing in culture was determined using the CellTiter-Blue (Promega, Madison, WI) viability assay. The mean drug concentration required to inhibit cell proliferation by 50% (IC50) compared with vehicle-treated controls was calculated using CalcuSyn Version 2.0 software (Great ShelfordCambridge, United Kingdom).

p110γ, sequence (P48736 whole entry): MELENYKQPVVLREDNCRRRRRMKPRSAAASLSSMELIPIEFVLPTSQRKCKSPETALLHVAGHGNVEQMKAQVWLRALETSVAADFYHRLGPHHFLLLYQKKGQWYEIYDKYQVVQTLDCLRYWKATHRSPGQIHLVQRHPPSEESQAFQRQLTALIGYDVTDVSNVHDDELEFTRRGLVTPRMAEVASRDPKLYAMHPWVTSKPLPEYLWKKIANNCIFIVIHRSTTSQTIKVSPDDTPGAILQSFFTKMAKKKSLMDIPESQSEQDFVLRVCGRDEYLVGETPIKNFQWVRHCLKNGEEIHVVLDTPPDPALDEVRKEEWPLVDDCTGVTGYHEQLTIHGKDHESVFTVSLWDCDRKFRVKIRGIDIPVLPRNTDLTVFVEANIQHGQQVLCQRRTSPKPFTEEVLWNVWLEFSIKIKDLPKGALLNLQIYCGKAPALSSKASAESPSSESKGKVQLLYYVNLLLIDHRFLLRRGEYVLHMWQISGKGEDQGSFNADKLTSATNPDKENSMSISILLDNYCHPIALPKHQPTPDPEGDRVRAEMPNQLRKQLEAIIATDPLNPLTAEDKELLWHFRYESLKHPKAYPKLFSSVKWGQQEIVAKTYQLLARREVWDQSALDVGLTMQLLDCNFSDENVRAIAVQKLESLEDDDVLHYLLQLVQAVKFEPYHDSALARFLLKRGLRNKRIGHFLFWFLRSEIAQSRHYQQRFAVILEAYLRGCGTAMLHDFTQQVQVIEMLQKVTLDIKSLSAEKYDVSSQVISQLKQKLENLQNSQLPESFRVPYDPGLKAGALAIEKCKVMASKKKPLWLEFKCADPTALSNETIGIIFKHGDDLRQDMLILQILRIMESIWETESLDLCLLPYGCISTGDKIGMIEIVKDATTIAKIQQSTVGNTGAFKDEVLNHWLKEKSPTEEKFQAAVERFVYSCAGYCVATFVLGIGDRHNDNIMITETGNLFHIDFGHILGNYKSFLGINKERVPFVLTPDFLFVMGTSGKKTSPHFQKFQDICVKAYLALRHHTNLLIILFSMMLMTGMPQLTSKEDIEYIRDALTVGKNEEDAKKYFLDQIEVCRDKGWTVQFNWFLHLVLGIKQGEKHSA
mixed lineage kinase 1 (MLK1), sequence (P80192 whole entry): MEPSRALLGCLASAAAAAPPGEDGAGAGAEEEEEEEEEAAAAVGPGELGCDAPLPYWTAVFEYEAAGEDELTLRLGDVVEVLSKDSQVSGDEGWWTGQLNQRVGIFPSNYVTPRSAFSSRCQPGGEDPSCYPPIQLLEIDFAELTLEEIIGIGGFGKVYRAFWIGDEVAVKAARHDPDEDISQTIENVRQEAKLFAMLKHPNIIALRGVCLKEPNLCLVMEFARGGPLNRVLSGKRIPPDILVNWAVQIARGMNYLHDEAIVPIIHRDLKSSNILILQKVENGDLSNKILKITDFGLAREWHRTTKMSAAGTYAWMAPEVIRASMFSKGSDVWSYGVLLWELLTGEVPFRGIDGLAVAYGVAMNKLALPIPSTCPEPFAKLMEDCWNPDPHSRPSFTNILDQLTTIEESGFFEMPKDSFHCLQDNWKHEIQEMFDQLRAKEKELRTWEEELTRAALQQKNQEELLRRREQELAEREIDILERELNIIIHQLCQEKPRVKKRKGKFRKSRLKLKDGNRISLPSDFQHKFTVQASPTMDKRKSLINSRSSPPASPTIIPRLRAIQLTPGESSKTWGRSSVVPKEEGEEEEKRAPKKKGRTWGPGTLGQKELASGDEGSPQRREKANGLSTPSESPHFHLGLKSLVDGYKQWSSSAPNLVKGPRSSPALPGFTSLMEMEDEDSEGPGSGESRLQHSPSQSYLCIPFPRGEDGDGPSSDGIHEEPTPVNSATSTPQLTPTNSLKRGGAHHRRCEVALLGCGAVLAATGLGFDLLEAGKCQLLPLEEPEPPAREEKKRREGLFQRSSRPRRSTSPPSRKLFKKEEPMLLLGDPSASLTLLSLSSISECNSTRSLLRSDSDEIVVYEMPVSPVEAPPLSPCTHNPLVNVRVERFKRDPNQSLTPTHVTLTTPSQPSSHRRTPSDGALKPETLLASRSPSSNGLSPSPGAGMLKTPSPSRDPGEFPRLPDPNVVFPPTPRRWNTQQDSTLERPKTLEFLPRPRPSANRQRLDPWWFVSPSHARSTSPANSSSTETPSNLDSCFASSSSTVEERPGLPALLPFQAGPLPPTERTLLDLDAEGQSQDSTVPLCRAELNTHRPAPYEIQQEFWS
p110δ, sequence (O00329 whole entry): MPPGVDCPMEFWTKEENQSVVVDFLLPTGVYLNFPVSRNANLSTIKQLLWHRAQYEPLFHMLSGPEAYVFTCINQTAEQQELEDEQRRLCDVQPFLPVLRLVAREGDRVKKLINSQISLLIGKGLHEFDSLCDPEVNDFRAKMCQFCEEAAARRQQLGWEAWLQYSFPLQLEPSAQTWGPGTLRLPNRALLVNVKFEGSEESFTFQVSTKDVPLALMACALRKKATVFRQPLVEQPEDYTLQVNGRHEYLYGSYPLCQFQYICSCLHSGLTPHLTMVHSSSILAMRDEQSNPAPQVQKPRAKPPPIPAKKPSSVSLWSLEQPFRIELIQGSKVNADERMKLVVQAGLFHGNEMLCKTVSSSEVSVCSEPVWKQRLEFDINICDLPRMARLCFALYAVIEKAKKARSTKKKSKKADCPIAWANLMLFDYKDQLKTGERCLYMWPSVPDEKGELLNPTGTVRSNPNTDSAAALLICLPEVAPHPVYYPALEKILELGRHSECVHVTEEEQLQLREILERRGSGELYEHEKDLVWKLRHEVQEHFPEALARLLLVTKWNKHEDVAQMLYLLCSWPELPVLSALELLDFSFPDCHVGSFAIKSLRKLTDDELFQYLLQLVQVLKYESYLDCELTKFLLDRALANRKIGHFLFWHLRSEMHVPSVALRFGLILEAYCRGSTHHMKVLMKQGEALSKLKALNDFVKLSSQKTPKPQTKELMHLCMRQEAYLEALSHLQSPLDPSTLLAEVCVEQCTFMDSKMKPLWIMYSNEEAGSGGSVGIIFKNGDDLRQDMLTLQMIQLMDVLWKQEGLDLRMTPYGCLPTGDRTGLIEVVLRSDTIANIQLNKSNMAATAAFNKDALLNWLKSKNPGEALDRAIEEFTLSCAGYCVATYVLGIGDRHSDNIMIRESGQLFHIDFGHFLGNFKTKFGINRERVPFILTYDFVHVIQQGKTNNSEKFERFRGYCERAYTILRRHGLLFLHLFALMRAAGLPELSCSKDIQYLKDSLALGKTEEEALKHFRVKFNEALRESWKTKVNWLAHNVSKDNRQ
p110δ, sequence (P27986 whole entry partner): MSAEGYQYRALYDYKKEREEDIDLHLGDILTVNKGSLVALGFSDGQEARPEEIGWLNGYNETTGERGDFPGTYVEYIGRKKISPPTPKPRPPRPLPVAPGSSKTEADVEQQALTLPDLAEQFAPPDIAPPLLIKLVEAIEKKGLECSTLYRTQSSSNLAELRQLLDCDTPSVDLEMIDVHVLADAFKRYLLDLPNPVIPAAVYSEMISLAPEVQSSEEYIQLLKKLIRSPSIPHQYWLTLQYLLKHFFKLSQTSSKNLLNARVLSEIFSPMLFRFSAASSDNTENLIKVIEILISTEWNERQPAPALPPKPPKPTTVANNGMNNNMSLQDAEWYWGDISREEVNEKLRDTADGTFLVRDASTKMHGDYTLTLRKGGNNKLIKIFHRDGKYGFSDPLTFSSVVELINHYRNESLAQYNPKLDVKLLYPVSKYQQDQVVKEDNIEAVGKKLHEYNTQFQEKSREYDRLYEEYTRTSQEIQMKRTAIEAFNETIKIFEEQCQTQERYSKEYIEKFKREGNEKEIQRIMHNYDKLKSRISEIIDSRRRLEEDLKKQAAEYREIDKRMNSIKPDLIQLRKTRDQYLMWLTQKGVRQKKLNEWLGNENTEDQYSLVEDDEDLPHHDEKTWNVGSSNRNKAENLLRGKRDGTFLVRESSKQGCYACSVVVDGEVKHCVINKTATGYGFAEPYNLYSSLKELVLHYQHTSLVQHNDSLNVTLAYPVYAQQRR
p110β, sequence (P42338 whole entry): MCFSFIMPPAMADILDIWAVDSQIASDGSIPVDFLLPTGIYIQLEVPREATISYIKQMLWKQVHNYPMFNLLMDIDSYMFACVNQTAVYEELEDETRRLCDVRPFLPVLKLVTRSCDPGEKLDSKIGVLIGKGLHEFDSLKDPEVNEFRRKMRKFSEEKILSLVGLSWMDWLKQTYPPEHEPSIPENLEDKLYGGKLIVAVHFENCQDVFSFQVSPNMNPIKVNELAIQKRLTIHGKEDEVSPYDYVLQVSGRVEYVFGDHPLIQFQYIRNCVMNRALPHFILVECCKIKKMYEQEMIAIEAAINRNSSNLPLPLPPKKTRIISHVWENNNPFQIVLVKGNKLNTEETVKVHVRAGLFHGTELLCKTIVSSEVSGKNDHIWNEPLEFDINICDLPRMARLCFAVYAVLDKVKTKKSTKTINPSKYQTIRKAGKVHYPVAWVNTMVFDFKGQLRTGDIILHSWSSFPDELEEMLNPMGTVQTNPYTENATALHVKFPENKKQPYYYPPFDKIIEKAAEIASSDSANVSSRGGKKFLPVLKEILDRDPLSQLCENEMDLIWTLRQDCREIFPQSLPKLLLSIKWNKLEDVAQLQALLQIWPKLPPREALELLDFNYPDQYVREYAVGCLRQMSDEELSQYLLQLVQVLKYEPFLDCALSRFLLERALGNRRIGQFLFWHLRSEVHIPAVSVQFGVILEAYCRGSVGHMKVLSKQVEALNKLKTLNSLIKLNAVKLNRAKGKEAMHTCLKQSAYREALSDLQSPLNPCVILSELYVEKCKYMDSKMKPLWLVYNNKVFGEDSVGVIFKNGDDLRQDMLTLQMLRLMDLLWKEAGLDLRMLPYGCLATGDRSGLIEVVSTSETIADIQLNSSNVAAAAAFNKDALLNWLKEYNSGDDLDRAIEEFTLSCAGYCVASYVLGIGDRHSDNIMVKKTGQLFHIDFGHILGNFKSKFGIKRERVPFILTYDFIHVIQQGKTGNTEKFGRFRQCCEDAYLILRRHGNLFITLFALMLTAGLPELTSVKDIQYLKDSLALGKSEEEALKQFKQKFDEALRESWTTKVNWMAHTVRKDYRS
p110β, sequence (P27986 whole entry partner): as the sequence (P27986 whole entry partner) above

## CC(=O)N1CCN(c2nc3c(N4CCOCC4)nc(-c4cnc(N)nc4)nc3n2CC(F)(F)F)C[C@H]1C [DS, 1-{(2R)-4-[2-(2-Aminopyrimidin-5-yl)-6-(morpholin-4-yl)-9-(2,2,2-trifluoroethyl)-9H-purin-8-yl]-2-methylpiperazin-1-yl}ethan-1-one]
[1]
  IC50: 0.017 µM
[2]
  IC50: 0.249 µM
[3]
  IC50: 0.262 µM
[4]
  IC50: 1.14 µM
[5]
  inhibition of MLK1: greater than 50%
[6]
  inhibition of NEK2: greater than 50%
[7]
  concentration achievable in the mouse brains: 0.2 µM
[7]; nude, mouse, brain and plasma, single PO 6 mg/kg, between 1 and 6 hours after treatment, read-out: brain-to-plasma ratio of total concentrations
  Kp at 6 h: ~0.1
[7]; single PO 6 mg/kg, up to 6 hours after treatment
  plasma concentration: higher than 2 μmol/L
[8]
  viability at 0.2 µM: 63%
